Test results taken from PubChem BioAssay AID179 (DTP/NCI, 2004).
Several values for one entry are separate records, joined by “and”; a condition that tells them apart may be missing. Equal values may be shown once. Activity calls are given as the source filed them.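 How the source made its calls: active means compounds giving half or more protection of infected cells from virus-caused growth loss, again on retest; inactive means the rest.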

Tested on: CEM cells HIV-1 protection, formazan growth assay
Experiment: NCI AIDS Antiviral Assay
Details: for IC50: measured here: growth of uninfected CEM cells
How it was run: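 Human CEM cells, uninfected and HIV-1-infected, received five drug concentrations, and growth was read by soluble formazan assay. Compounds giving at least 50% protection were retested; reproducible 100% protection defined confirmed active.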

## O=C1NC(=O)c2c1c1cnn(-c3ccccc3)c1n1cccc21
  EC50: > 74.1 µM
  IC50: > 74.1 µM

## Cc1ccc(S(=O)(=O)NC(=O)NCCCSSCCCNC(=O)NS(=O)(=O)c2ccc(C)cc2)cc1
  EC50: > 200 µM
  IC50: > 200 µM

## O=C1CSC(c2cccc(Cl)c2)N1c1ccc(-c2ccc(-n3c(-c4ccccc4)nc4ccccc4c3=O)cc2)cc1 (stereo not drawn)
  EC50: > 200 µM
  IC50: 21.9 µM

## CN1C(=O)C(N=Nc2ccc([N+](=O)[O-])cc2)SC1=S (stereo not drawn)
  EC50: > 100 µM
  IC50: 10.7 µM and > 12.6 µM

## Nc1nc(N)c2nc(-c3ccccc3)c(N)nc2n1
  outcome: inactive

## CCCC(C)(O)CN (stereo not drawn)
  outcome: inactive

## CC(=O)Nc1ccccc1S(=O)(=O)c1c(-c2c(C)c(Cl)c(C)c(Cl)c2C)noc1C
  EC50: > 200 µM
  IC50: 87.1 µM

## CN(C)Cc1cc(C(=O)/C=C/c2ccc([N+](=O)[O-])cc2)cc(CN(C)C)c1O
  EC50: > 200 µM
  IC50: 2.82 µM

## CC(C)=CC(=O)CC(=O)C(=O)NCCNC(=O)C(=O)CC(=O)C=C(C)C
  EC50: > 2.09 µM
  IC50: > 2.09 µM

## CCC[CH2][Sn]1([CH2]CCC)[O]C(=O)c2ccc(N)cc2[O]1
  outcome: inactive

## C=C(C)C1CCC2(C)OC2C1 (stereo not drawn)
  EC50: > 200 µM
  IC50: > 200 µM

## CCOC(=O)N1CCC2(CC1)C[C@](Sc1ccccc1)(C(C)=O)[C@H](C)O2
  EC50: > 200 µM
  IC50: > 200 µM

## CCOC(=O)/C(Br)=C1\OC(=O)c2ccccc2-c2ccccc21
  EC50: > 19.5 µM
  IC50: > 19.5 µM

## CCOC(=O)Nc1nc2ccn(C)c2s1
  EC50: > 200 µM
  IC50: > 200 µM

## N#C/C(C(=S)Nc1ccccc1)=C(/N)N1CCCC1
  EC50: > 200 µM
  IC50: 105 µM

## COc1cc(C[C@@H](C)N)cc(OC)c1
  EC50: > 200 µM
  IC50: > 200 µM

## CC1=N/C(=C\c2ccc(N(C)C)cc2)C(=O)O1
  EC50: > 81.3 µM
  IC50: > 81.3 µM

## COc1ccc(/C=N\N2C(=O)Cc3ccccc32)cc1
  EC50: > 37.2 µM
  IC50: > 37.2 µM

## CCCCNC(=O)OCC(COc1ccccc1OC)OC(=O)NCCCC (stereo not drawn)
  EC50: > 66.1 µM
  IC50: > 66.1 µM

## CCCCCO/N=C\c1c2c(O)c3c(O)c(C)c4c(c3c1O)C(=O)C(C)(O/C=C\C(OC)C(C)C(OC(C)=O)C(C)C(O)C(C)C(O)C(C)/C=C\C=C(\C)C(=O)N2)O4 (stereo not drawn)
  EC50: > 200 µM
  IC50: 8.91 µM

## O=C(O)CN1C(=O)c2cccc3cccc(c23)C1=O
  EC50: > 200 µM
  IC50: > 200 µM

## O=C1Nc2ccccc2NC1C1OC(c2ccccc2)=CC1=O (stereo not drawn)
  EC50: > 200 µM
  IC50: 97.7 µM

## O=C(O)c1c[nH]c2c(ccc3[nH]cc(C(=O)O)c(=O)c32)c1=O
  EC50: > 200 µM
  IC50: > 200 µM

## COc1ccc2[nH]c(C(O)(Cc3cccnc3)Cc3cccnc3)cc2c1
  EC50: 191 µM
  IC50: > 200 µM

## O=C1Nc2n[nH]c(=S)n2NC12c1ccccc1-c1ccccc12
  EC50: > 200 µM
  IC50: > 100 µM

## N#Cc1c(C#N)c(-c2ccccc2)n(-c2ccccc2)c1N
  EC50: > 200 µM
  IC50: 53.7 µM

## c1ccc2c(c1)N[C@@H]1c3[nH]c4ccccc4c3CC[C@H]21
  EC50: > 200 µM
  IC50: 24.5 µM

## CC1(C)OC(=O)c2c(cc(N3CCOCC3)oc2=O)O1
  EC50: > 200 µM
  IC50: > 200 µM

## CCCOc1cc2c(c3oc(=O)cc(CCC)c13)C(=O)[C@H](C)[C@@H](C)O2
  EC50: > 200 µM
  IC50: 5.5 µM

## CCSC(SCC)C(O)C(O)C(O)C(O)C(O)C(O)CO (stereo not drawn)
  outcome: inactive

## COc1cc(N=Nc2cc(NC(C)=O)c(N=Nc3ccc(C(=O)O)cc3)cc2S(=O)(=O)O)c(C)cc1N=Nc1ccc(NC(=O)c2ccc(N)cc2)cc1C
  EC50: 14.1 µM
  IC50: > 100 µM

## COc1cc2c(cc1OC)-c1c(cc(OC)c(OC)c1OC)C2=O
  outcome: inactive

## CC(=O)c1c(O)cc(O)c(-c2c(C)cc(O)c3c2C(=O)c2cccc(O)c2C3=O)c1O
  EC50: > 200 µM
  IC50: 25.7 µM

## BrC1(Br)C2/C=C\CCCCC21 (stereo not drawn)
  outcome: inactive

## COc1cc(-c2[nH]ncc2CCCC(=O)Nc2ccccc2[N+](=O)[O-])ccc1O
  outcome: inactive

## COc1ccc(C(c2ccccc2)N2C(=O)CCC2C(=O)O)cc1OC (stereo not drawn)
  EC50: > 200 µM
  IC50: > 200 µM

## C[N+]12CC[N+](C)(CC1)CC2
  EC50: > 832 µM
  IC50: > 832 µM

## CSCC(COC(C)=O)(CSC)c1ccncc1
  EC50: > 871 µM
  IC50: 501 µM

## CC(=O)Nc1ccc(CNc2cc(=O)n(C)c(=O)[nH]2)cc1
  EC50: > 200 µM
  IC50: > 200 µM

## COc1cc2oc(=O)cc(C)c2cc1O
  EC50: > 871 µM
  IC50: 138 µM

## C=C(c1ccc(OC)c(OC)c1)c1nccc2cc(OC)c(OC)cc12
  EC50: > 74.1 µM
  IC50: 12.6 µM

## CC(=O)OC1[C@@H](OC(C)=O)[C@H](OC(C)=O)C2(CO2)[C@H](OC(C)=O)[C@H]1OC(C)=O (stereo partly drawn)
  EC50: > 200 µM
  IC50: 12.3 µM

## CCc1ccc(NCc2cc(OC)c(OC)c(OC)c2)cc1
  EC50: > 166 µM
  IC50: 0.372 µM and 0.151 µM

## S=C(NN1CCOCC1)SSC(=S)NN1CCOCC1
  EC50: > 20 µM
  IC50: 0.933 µM

## O=C1c2ccccc2C(=O)C2C3c4ccccc4C(c4ccccc43)C12 (stereo not drawn)
  EC50: > 15.5 µM
  IC50: > 15.5 µM
